Results published in BindingDB's records for doi:10.1007/s10822-022-00478-x (Roche Innovation Center Basel, F. Hoffmann-La Roche Ltd., 2022).

Target: cAMP and cAMP-inhibited cGMP 3',5'-cyclic phosphodiesterase 10A (Homo sapiens, UniProt Q9Y233)
Experiment: PDE10A assay
Summary of the method: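 Human PDE10A (2 ng/well) preincubated 15 min RT with compound in HEPES pH 7.5, 10 mM MgCl2, BSA, then reacted 15 min with 50 nM [3H]cGMP/cGMP substrate. Stopped with Y-Si SPA beads; bound radioactivity counted, IC50 from four-parameter logistic, pIC50 = −log10(IC50).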

| IC50 [nM] | Structure (SMILES) |
| --- | --- |
| 10000 | CNC(=O)c1nn(C)cc1NC(=O)c1nc(C2CC2)ccc1N(C)c1cncnc1 [Roche-Dataset for PDE10A, Compound 1122] |
| 1240 | O=C(NCC(F)(F)F)c1nc(C2CC2)cnc1Nc1cncnc1 [Roche-Dataset for PDE10A, Compound 1124] |
| 4820 | C/C(=C\c1nc2c(C)ncc(C)n2n1)c1nc(Br)nn1C [Roche-Dataset for PDE10A, Compound 1125] |
| 1080 | O=C(N[C@@H]1C[C@H]2CC[C@@H]1C2)c1nc(C2CC2)cnc1Nc1cncnc1 [Roche-Dataset for PDE10A, Compound 1126] |
| 2060 | Cc1cnc(C)n2nc(/C=C/c3nc(Br)nn3C)nc12 [Roche-Dataset for PDE10A, Compound 1128] |
| 8330 | CNC(=O)c1c(NC(=O)c2c(C(=O)N3CCC3)cnn2C)cnn1C [Roche-Dataset for PDE10A, Compound 1129] |
| 2420 | Cc1cnc(C)n2nc(CCc3ncnn3C)nc12 [Roche-Dataset for PDE10A, Compound 1130] |
| 2480 | Cc1ncc(C)n2nc(CCc3nc(Br)nn3C)nc12 [Roche-Dataset for PDE10A, Compound 1131] |
| 752 | Cc1ncc(C)n2nc(/C=C/c3nc(N4CC[C@@H](NC(=O)OC(C)(C)C)C4)nn3C)nc12 [Roche-Dataset for PDE10A, Compound 1132] |
| 8.14 | Cn1ncc(C(=O)N2CCC2)c1C(=O)Nc1ccc2cc(-c3ccccc3)nn2n1 [Roche-Dataset for PDE10A, Compound 1133] |
| 2260 | C/C(=C/c1nc2c(C)ncc(C)n2n1)c1nc(Br)nn1C [Roche-Dataset for PDE10A, Compound 1134] |
| 6120 | CCn1nc(NC(=O)c2c(C(=O)N3CCC3)cnn2C)cc1C1CC1 [Roche-Dataset for PDE10A, Compound 1135] |
| 868 | CN(C)C(=O)c1cnn(Cc2ccccc2)c1C(=O)Nc1ccn2nc(N3CCOCC3)nc2c1 [Roche-Dataset for PDE10A, Compound 1136] |
| 1430 | Cn1ccc(NC(=O)c2c(C(=O)N3CCC3)cnn2C)n1 [Roche-Dataset for PDE10A, Compound 1137] |
| 1920 | Cn1nccc1NC(=O)c1c(C(=O)N2CCC2)cnn1C [Roche-Dataset for PDE10A, Compound 1138] |
| 4650 | Cc1cc(NC(=O)c2c(C(=O)N3CCC3)cnn2C)cc(Br)n1 [Roche-Dataset for PDE10A, Compound 1139] |
| 535 | Cc1cc(C)n2nc(CCc3nc(N(C)C)nn3C)nc2n1 [Roche-Dataset for PDE10A, Compound 1140] |
| 3910 | Cc1cnc(C)n2nc(/C=C/c3ncnn3C)nc12 [Roche-Dataset for PDE10A, Compound 1142] |
| 788 | O=C(N[C@]12C[C@H]3C[C@H](C[C@H](C3)C1)C2)c1nc(C2CC2)cnc1Nc1cncnc1 [Roche-Dataset for PDE10A, Compound 1143] |
| 924 | Cc1cc(C)n2nc(/C=C/c3nc(N(C)C)nn3C)nc2n1 [Roche-Dataset for PDE10A, Compound 1144] |
| 4770 | Cc1ncc(C)n2nc(CCc3nc(N4CCN(C(c5ccccc5)c5ccccc5)C4=O)nn3C)nc12 [Roche-Dataset for PDE10A, Compound 1145] |
| 692 | Cn1ncc(C(=O)N2CCC2)c1C(=O)Nc1cc2ccccn2n1 [Roche-Dataset for PDE10A, Compound 1147] |
| 2680 | Cc1cc(NC(=O)c2c(C(=O)N3CCC3)cnn2C)n[nH]1 [Roche-Dataset for PDE10A, Compound 1149] |
| 3930 | Cc1ncc(C)n2nc(CCc3nc(N)nn3C)nc12 [Roche-Dataset for PDE10A, Compound 1150] |

| IC50 [nM] | Structure (SMILES) |
| --- | --- |
| 1340 | Cn1ncc(C(=O)O)c1C(=O)Nc1ccc2nc(N3CCOCC3)nn2c1 [Roche-Dataset for PDE10A, Compound 1151] |
| 4550 | CNC(=O)c1c(NC(=O)c2nc(Cl)c(OC)nc2Nc2cncnc2)cnn1C [Roche-Dataset for PDE10A, Compound 1152] |
| 1520 | Cn1ncc(C(=O)NCc2nc3ccccc3[nH]2)c1C(=O)Nc1ccn2cc(-c3ccccc3)nc2n1 [Roche-Dataset for PDE10A, Compound 1153] |
| 1040 | O=C(NC1CCCCCC1)c1nc(C2CC2)cnc1Nc1cncnc1 [Roche-Dataset for PDE10A, Compound 1154] |
| 3130 | Cn1ncc(C(=O)N2CCC2)c1C(=O)Nc1cc[nH]n1 [Roche-Dataset for PDE10A, Compound 1155] |
| 2760 | Cn1ncc(C(=O)NCc2cc(C(F)(F)F)ccn2)c1C(=O)Nc1ccn2cc(-c3ccccc3)nc2n1 [Roche-Dataset for PDE10A, Compound 1156] |
| 4780 | Cn1ncc(C(=O)NCc2cccc(C(F)(F)F)n2)c1C(=O)Nc1ccn2cc(-c3ccccc3)nc2n1 [Roche-Dataset for PDE10A, Compound 1157] |
| 10000 | Cc1cc(C)n2nc(/C=C/c3nc(Br)nn3C)nc2n1 [Roche-Dataset for PDE10A, Compound 1158] |
| 10000 | Cc1cc(C)n2nc(CCc3ncnn3C)nc2n1 [Roche-Dataset for PDE10A, Compound 1159] |
| 4290 | Cc1cc(C)c2c(NC(=O)c3c(C(=O)N4CCC4)cnn3C)nn(C)c2n1 [Roche-Dataset for PDE10A, Compound 1160] |
| 9.7 | O=C(Nc1ccn(-c2ccncc2)n1)c1nc(C2CC2)ccc1Nc1cncnc1 [US8470820, 7] |
| 3.23 | Cn1nc(-c2ccccn2)cc1NC(=O)c1nc(C2CC2)ccc1Nc1cncnc1 [US8470820, 8] |
| 2.25 | O=C(Nc1cc(-c2ccccn2)nn1CCO)c1nc(C2CC2)ccc1Nc1cncnc1 [US8470820, 10] |
| 5.24 | COCc1ccc(Nc2cncnc2)c(C(=O)Nc2cc(-c3ccccn3)nn2CCO)n1 [US8470820, 11] |
| 1.05 | CN(C)CCn1nc(-c2ccccn2)cc1NC(=O)c1nc(C2CC2)ccc1Nc1cncnc1 [US8470820, 12] |
| 3.74 | CCOC(=O)Cn1nc(-c2ccccn2)cc1NC(=O)c1nc(C2CC2)ccc1Nc1cncnc1 [US8470820, 15] |
| 1.53 | O=C(Nc1cc(-c2ccccn2)nn1CCN1CCOCC1)c1nc(C2CC2)ccc1Nc1cncnc1 [US8470820, 16] |
| 4.91 | O=C(Nc1cc(-c2ccccn2)nn1CCc1ccccc1)c1nc(C2CC2)ccc1Nc1cncnc1 [US8470820, 17] |
| 2.54 | O=C(Nc1cc(-c2ccccn2)nn1CC(F)(F)F)c1nc(C2CC2)ccc1Nc1cncnc1 [US8470820, 22] |
| 1.68 | CCCn1nc(-c2ccccn2)cc1NC(=O)c1nc(C2CC2)ccc1Nc1cncnc1 [US8470820, 23] |
| 1.41 | O=C(Nc1cc(-c2cccc(Cl)n2)nn1CCO)c1nc(C2CC2)ccc1Nc1cncnc1 [US8470820, 24] |
| 0.09 | O=C(Nc1cc(-c2ccc3ccccc3n2)nn1CCO)c1nc(C2CC2)ccc1Nc1cncnc1 [US8470820, 25] |
| 1.59 | O=C(Nc1cc(-c2ccc(Cl)cn2)nn1CCO)c1nc(C2CC2)ccc1Nc1cncnc1 [US8470820, 26] |
| 2.55 | CC(C)n1nc(-c2ccccn2)cc1NC(=O)c1nc(C2CC2)ccc1Nc1cncnc1 [US8470820, 27] |

| IC50 [nM] | Structure (SMILES) |
| --- | --- |
| 1.24 | CC(C)Cn1nc(-c2ccccn2)cc1NC(=O)c1nc(C2CC2)ccc1Nc1cncnc1 [US8470820, 28] |
| 1.71 | O=C(Nc1cc(-c2ccccn2)nn1Cc1ccccc1)c1nc(C2CC2)ccc1Nc1cncnc1 [US8470820, 29] |
| 4.73 | CCn1nc(-c2ccccn2)cc1NC(=O)c1nc(C2CC2)ccc1Nc1cncnc1 [US8470820, 30] |
| 1.12 | O=C(Nc1cc(-c2ccccn2)nn1CC1CCCC1)c1nc(C2CC2)ccc1Nc1cncnc1 [US8470820, 31] |
| 1.06 | O=C(Nc1cc(-c2ccccn2)nn1CC1CCCCC1)c1nc(C2CC2)ccc1Nc1cncnc1 [US8470820, 32] |
| 1.51 | Cn1cncc1Cn1nc(-c2ccccn2)cc1NC(=O)c1nc(C2CC2)ccc1Nc1cncnc1 [US8470820, 37] |
| 0.18 | COCCn1nc(-c2ccccn2)cc1NC(=O)c1nc(C2CC2)ccc1Nc1cncnc1 [US8470820, 38] |
| 3.16 | Cn1nc(-c2ccc(Cl)cn2)cc1NC(=O)c1nc(C2CC2)ccc1Nc1cncnc1 [US8470820, 39] |
| 0.08 | Cn1nc(-c2ccc3ccccc3n2)cc1NC(=O)c1nc(C2CC2)ccc1Nc1cncnc1 [US8470820, 40] |
| 2.77 | Cn1nc(-c2cccc(Cl)n2)cc1NC(=O)c1nc(C2CC2)ccc1Nc1cncnc1 [US8470820, 41] |
| 4.15 | CN1CCC(n2nc(-c3ccccn3)cc2NC(=O)c2nc(C3CC3)ccc2Nc2cncnc2)CC1 [US8470820, 43] |
| 1790 | COc1ccc(-c2nnc(NC(=O)c3nc(C4CC4)ccc3Nc3cncnc3)s2)cc1 [US8470820, 44] |
| 6200 | O=C(Nc1nnc(-c2ccc(F)cc2)s1)c1nc(C2CC2)ccc1Nc1cncnc1 [US8470820, 45] |
| 1.43 | O=C(Nc1ccc(-c2ccccn2)s1)c1nc(C2CC2)ccc1Nc1cncnc1 [US8470820, 50] |
| 3.85 | O=C(Nc1cc(-c2ccccn2)no1)c1nc(C2CC2)ccc1Nc1cncnc1 [US8470820, 51] |
| 6.57 | COCc1ccc(Nc2cncnc2)c(C(=O)Nc2cc(-c3ccccn3)nn2C)n1 [US8470820, 59] |
| 126 | Cn1nc(NC(=O)c2nc(C3CC3)ccc2Nc2cncnc2)cc1-c1ccccn1 [US8470820, 63] |
| 2580 | O=C(Nc1nnc(-c2ccccn2)o1)c1nc(C2CC2)ccc1Nc1cncnc1 [US8470820, 64] |
| 0.83 | CNC(=O)c1c(NC(=O)c2nc(C3CC3)ccc2Nc2cncnc2)cnn1CCOC [US8703768, 11] |
| 33 | Cn1cc(NC(=O)c2nc(C3CC3)ccc2Nc2cncnc2)c(C(=O)N2CCC2)n1 [US8703768, 30] |
| 6.78 | CN(C)C(=O)c1nn(-c2ccccn2)cc1NC(=O)c1nc(C2CC2)ccc1Nc1cncnc1 [US8703768, 74] |
| 0.48 | O=C(NC1CC1)c1ccsc1NC(=O)c1nc(C2CC2)ccc1Nc1cncnc1 [US8703768, 89] |
| 0.44 | O=C(Nc1sccc1C(=O)N1CCOCC1)c1nc(C2CC2)ccc1Nc1cncnc1 [US8703768, 90] |
